Results from ChEMBL document CHEMBL4402545, “Subtype Selective γ-Aminobutyric Acid Type A Receptor (GABAAR) Modulators Acting at the Benzodiazepine Binding Site: An Update” (J Med Chem, 2020).

Assays:
Homo sapiens [1] = assay: In vivo receptor occupancy GABAA receptor in human assessed as cerebellum concentration causing reduction in [11C]flumazenil receptor labeling at 20 mg by PET method relative to control; format: functional
Homo sapiens [2] = assay: In vivo receptor occupancy GABAA receptor in human assessed as occipital cortex concentration causing reduction in [11C]flumazenil receptor labeling at 20 mg by PET method relative to control; format: functional
Rattus norvegicus [3] = assay: In vivo receptor occupancy at GABAA receptor in sc dosed rat brain; format: functional
Rattus norvegicus [4] = assay: In vivo receptor occupancy at GABAA receptor in po dosed Sprague-Dawley rat assessed as brain concentration causing 50% reduction in [3H]-flumazenil receptor labeling after 0.5 hrs; format: functional
[5] = target: T1, Gamma-aminobutyric acid receptor subunit alpha-1 (Homo sapiens, UniProt P14867); assay: Binding affinity to GABA-A alpha1 (unknown origin)
T1 sequence (P14867 whole entry): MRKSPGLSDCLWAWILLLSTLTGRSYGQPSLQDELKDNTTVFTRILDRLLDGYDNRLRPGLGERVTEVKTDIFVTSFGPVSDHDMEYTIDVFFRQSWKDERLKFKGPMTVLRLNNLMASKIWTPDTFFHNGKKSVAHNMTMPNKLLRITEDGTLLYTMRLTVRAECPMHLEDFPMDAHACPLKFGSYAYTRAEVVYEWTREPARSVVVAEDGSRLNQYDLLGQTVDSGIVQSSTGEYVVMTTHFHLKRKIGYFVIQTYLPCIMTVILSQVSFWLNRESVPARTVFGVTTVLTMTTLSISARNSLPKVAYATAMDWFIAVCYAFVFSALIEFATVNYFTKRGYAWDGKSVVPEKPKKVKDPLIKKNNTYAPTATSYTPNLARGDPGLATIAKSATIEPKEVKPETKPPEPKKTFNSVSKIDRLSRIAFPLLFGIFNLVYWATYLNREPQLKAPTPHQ

Homo sapiens [6] = assay: In vivo receptor occupancy at GABAA receptor in human at 5 mg, po relative to control; format: functional
[7] = target: T2, Gamma-aminobutyric acid receptor subunit alpha-2 (Homo sapiens, UniProt P47869); assay: Binding affinity to GABA-A alpha2 (unknown origin)
T2 sequence (P47869 whole entry): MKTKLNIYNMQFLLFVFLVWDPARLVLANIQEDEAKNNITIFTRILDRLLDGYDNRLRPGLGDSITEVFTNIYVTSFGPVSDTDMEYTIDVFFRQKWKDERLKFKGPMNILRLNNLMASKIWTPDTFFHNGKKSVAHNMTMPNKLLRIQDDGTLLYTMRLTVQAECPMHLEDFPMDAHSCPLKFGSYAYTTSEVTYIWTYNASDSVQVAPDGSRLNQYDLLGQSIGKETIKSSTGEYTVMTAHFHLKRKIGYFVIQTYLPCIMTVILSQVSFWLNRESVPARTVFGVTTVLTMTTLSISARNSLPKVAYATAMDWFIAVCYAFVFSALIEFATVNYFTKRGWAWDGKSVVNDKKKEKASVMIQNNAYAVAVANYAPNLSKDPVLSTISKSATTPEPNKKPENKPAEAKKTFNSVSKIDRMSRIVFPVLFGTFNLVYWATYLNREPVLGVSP

Rattus norvegicus [8] = assay: In vivo receptor occupancy at GABAA receptor in po dosed Sprague-Dawley rat assessed as plasma concentration causing 50% reduction in [3H]-flumazenil receptor labeling after 0.5 hrs; format: functional
Rhesus monkey = assay: In vivo receptor occupancy at GABAA receptor in iv dosed rhesus monkey assessed as plasma concentration causing 50% reduction in [11C]-flumazenil receptor labeling by PET method; format: functional, Macaca mulatta
[9] = target: T3, Gamma-aminobutyric acid receptor subunit alpha-3 (Homo sapiens, UniProt P34903); assay: Binding affinity to GABA-A alpha3 (unknown origin)
T3 sequence (P34903 whole entry): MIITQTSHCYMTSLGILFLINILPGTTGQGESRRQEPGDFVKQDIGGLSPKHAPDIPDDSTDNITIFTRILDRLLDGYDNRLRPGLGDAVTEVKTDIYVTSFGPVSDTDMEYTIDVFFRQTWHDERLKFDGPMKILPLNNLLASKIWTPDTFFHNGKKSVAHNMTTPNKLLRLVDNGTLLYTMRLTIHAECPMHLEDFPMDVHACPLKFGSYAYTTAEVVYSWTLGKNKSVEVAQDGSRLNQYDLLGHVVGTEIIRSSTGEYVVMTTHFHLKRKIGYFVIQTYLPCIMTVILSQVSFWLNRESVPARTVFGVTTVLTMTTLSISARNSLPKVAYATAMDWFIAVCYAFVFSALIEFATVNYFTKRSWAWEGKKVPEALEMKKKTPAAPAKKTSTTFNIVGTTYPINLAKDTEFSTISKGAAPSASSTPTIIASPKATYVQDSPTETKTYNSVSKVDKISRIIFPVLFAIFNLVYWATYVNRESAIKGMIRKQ

[10] = target: T4, Gamma-aminobutyric acid receptor subunit alpha-3 (Homo sapiens) (UniProt P34903); assay: Binding affinity to GABA-A alpha3 (unknown origin) assessed as reduction in DMCM induced current relative to DMCM
T4 sequence (whole entry): T3 sequence (P34903 whole entry)

[11] = target: T5, Gamma-aminobutyric acid receptor subunit alpha-2 (Homo sapiens) (UniProt P47869); assay: Binding affinity to GABA-A alpha2 (unknown origin) assessed as reduction in DMCM induced current relative to DMCM
T5 sequence (whole entry): T2 sequence (P47869 whole entry)

Homo sapiens [12] = assay: In vivo receptor occupancy at GABAA receptor in po dosed human assessed as plasma concentration causing 50% reduction in [11C]-flumazenil receptor labeling; format: functional
[13] = target: T6, Gamma-aminobutyric acid receptor subunit alpha-1 (Homo sapiens) (UniProt P14867); assay: Negative allosteric modulation of GABA-A alpha1 (unknown origin) assessed as reduction in DMCM induced current relative to DMCM
T6 sequence (whole entry): T1 sequence (P14867 whole entry)

Homo sapiens [14] = assay: In vivo receptor occupancy at GABAA receptor in human assessed as brain concentration causing reduction in [11C]-flumazenil receptor labeling at 2 mg after 1 hr by PET relative to control; format: functional
[15] = target: T7, Gamma-aminobutyric acid receptor subunit alpha-5 (Homo sapiens, UniProt P31644); assay: Binding affinity to GABA-A alpha5 (unknown origin)
T7 sequence (P31644 whole entry): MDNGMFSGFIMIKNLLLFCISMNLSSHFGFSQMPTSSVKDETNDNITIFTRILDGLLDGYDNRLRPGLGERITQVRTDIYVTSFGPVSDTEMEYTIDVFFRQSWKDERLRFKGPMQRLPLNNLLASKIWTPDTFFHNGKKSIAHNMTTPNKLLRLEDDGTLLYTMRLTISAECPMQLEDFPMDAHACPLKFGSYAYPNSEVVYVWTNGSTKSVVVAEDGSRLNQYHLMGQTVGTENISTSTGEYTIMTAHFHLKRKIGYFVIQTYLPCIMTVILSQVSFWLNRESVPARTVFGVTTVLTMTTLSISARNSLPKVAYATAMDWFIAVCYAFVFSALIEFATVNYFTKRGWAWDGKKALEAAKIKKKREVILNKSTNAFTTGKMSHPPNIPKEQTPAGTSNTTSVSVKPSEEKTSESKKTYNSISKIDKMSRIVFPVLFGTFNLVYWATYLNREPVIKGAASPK

Mus musculus = assay: In vivo receptor occupancy at GABAA receptor in po dosed mouse assessed as brain concentration causing 50% reduction in [3H]-flumazenil receptor labeling; format: functional
Rattus norvegicus [16] = assay: In vivo receptor occupancy at GABAA receptor in po dosed rat assessed as brain concentration causing 50% reduction in [3H]-flumazenil receptor labeling; format: functional
[17] = target: T8, Gamma-aminobutyric acid receptor subunit alpha-5 (Homo sapiens) (UniProt P31644); assay: Binding affinity to GABA-A alpha5 (unknown origin) assessed as reduction in DMCM induced current relative to DMCM
T8 sequence (whole entry): T7 sequence (P31644 whole entry)

Row | SMILES | Occ (Homo sapiens [1]) [%] | Occ (Homo sapiens [2]) [%] | Occ50 (Rattus norvegicus [3]) [µM/g] | Occ50 (Rattus norvegicus [4]) [mg/kg] | Ki [5] [nM] | Occ (Homo sapiens [6]) [%] | Ki [7] [nM] | Occ50 (Rattus norvegicus [8]) [ng/mL] | Occ50 (Rhesus monkey) [ng/mL] | Ki [9] [nM] | Efficacy [10] | Efficacy [11] | Occ50 (Homo sapiens [12]) [ng/mL] | Efficacy [13] | Occ (Homo sapiens [14]) [%] | Ki [15] [nM] | Occ50 (Mus musculus) [mg/kg] | Occ50 (Rattus norvegicus [16]) [mg/kg] | Efficacy [17]
1 | CCCNC(=O)c1nnc2c(-c3c(F)cccc3OC)cccc2c1N [AZD7325] | 83 | 83 | 1 to 2 | – | – | – | – | – | – | – | – | – | – | – | – | – | – | – | –
2 | Cc1cc(-c2nncc3c(C(C)(C)C)c(OCc4ncnn4C)nn23)no1 | – | – | – | 0.39 | 0.83 | 75 | 0.85 | 15 | 21 | 0.77 | – | – | – | – | – | – | – | – | –
3 | Cc1cc(-c2nnc3c4ccccc4c(OCc4cn(C)nn4)nn23)no1 | – | – | – | – | 0.88 | – | 0.58 | – | – | 0.61 | -0.11 | 0.1 | 10 | -0.25 | 50 | 0.66 | 0.25 | 0.12 | -0.7
